This is an account of results in patent US20130079309A1, “Method Of Treating Acute Lung Injury Using Sphingosine 1 Phosphate Analogs Or Sphingosine 1 Phosphate Receptor Agonists” (The Board of Trustees of the University of Illinois, priority 2010, published 2013).

Experiment [1] deals with HPAEC. As to the kind of experiment: Pharmacologic inhibitor effects on barrier enhancement (TER). Particulars: 1 μM agonist, 60 min.
Experimental: Endothelial cells were grown to confluence in polycarbonate wells containing evaporated gold microelectrodes (surface area, 10^−3 cm^2) in series with a large gold counter electrode (1 cm^2) connected to a phase-sensitive lock-in amplifier. Current was applied across the electrodes by a 4,000-Hz AC voltage source with amplitude of 1 V in series with a 1 MΩ resistance to approximate a constant current source (˜1 μA). The in-phase and out-of-phase voltages between the electrodes were monitored in real time with the lock-in amplifier and subsequently converted to scalar measurements of transendothelial impedance, of which resistance was the primary focus. TER was monitored for 30 minutes to establish a baseline resistance (R0) which, for bovine pulmonary endothelium, was typically between 8 to 12×10^3Ω (wells with R0<7×10^3Ω were rejected). As cells adhere and spread out on the microelectrode, TER increases (maximal at confluence), whereas cell retraction, rounding, or loss of adhesion is reflected by a decrease in TER. These measurements provide a highly sensitive biophysical assay that indicates the state of cell shape and focal adhesion. Values from each microelectrode were pooled at discrete time points and plotted versus time as the mean±SE of the mean. TER values from each microelectrode were pooled as discrete time points and plotted versus time as the mean±S.E.M.
In this experiment, confluent HPAEC were plated on gold microelectrodes and then stimulated with 1 μM S1P, FTY720, 1R, 1S, 2R, or 2S after either a 2-h preincubation with 100 ng/ml PTX, 30-min preincubation with 200 μM genistein (Gen), or 2-h preincubation with 2 mM MβCD or their respective vehicle controls. Data were pooled from multiple TER experiments (4-10 independent experiments per condition) and expressed as percentage inhibition of maximal barrier enhancement at 60 min relative to agonist-only control.
Experiment [2] concerns the target T1, S1P receptor 1 (S1PR1) (Homo sapiens, UniProt P21453). The experiment is described as follows: S1PR1 protein expression in HPAEC by Western blot. It counts as cell-based. Further details: Cells were collected and S1PR1 expression level was detected by Western blot; endogenous in cells; host or cells: HPAEC (human pulmonary artery endothelial cells). As to conditions: 1 μM (SEW2871 10 μM), 4 h. From the text:
Cells were collected and S1PR1 expression level was detected by Western blot.
On the technique in general: Immunoblotting shows a protein as a band on a membrane.

For another experiment, the system named is ERK. As to the kind of experiment: Western blotting of HPAEC lysates for phospho-ERK. It counts as cell-based, human. Particulars: 5 min. How it is done:
(§1) After treatment as outlined for individual experiments, confluent HPAEC were lysed for Western blotting with phospho-MLC, pan-MLC, phospho-ERK, or pan-ERK antibodies. […] Membranes were then immunoblotted with primary antibodies (1:500-1000, 4° C., overnight) followed by secondary antibodies conjugated to horseradish peroxidase (1:5000, room temperature, 30 min) and detected with enhanced chemiluminescence (Pierce ECL or SuperSignal West Dura; Pierce Biotechnology, Rockford, Ill.) on Biomax MR film (Carestream Health, Rochester, N.Y.).

For experiment [3], the system named is HPAEC. As to the kind of experiment: Transwell transendothelial permeability assay (FITC-dextran). It counts as cell-based, human. Particulars: 1 μM (3R, 3S 25 μM), 1 h before FITC-dextran, 2-h incubation.
Experimental: As a complementary approach to further characterize the barrier-protective effects of these FTY720 analogs in vitro, the permeability of FITC-labeled dextran across the pulmonary EC monolayer was assayed in response to treatment by the FTY720 analogs. […] Data were normalized to unstimulated control. n=3 independent experiments per condition; *, p<0.01 versus unstimulated condition (see FIG. 26).
For experiment [4], the system named is HPAEC. The experiment is described as follows: Transendothelial electrical resistance (TER) of HPAEC. It counts as cell-based, human. Particulars: 10 μM, within 60 min. How it is done: Cells were grown at 37° C. in a 5% CO2 incubator, and passages 6 to 9 were used for experiments. Media were changed 1 day before experimentation.
For experiment [5], the target named is T1, S1P receptor 1 (S1PR1). The experiment is described as follows: Ubiquitination of S1PR1 in HPAEC (immunoprecipitation, ubiquitin Ab). Particulars: 1 μM, 1 h.
Text: S1PR1 was immunoprecipitated by S1PR1Ab, and ubiquitination of S1PR1 was detected by ubiquitin Ab.
In the next experiment the test system is β-arrestin. As to conditions: 1 μM (SEW2871 10 μM; (S)-FTY720-phosphonate 1, 10, 50 μM), 5 h.
Experiment [6] deals with LPS-induced lung injury in C57BL/6 mice. The experiment is described as follows: LPS-induced murine lung injury model. As to conditions: 1S 0.1-5.0 mg/kg i.p. single dose 1 h after LPS 2.5 mg/kg i.t.; 18 h; FTY720 0.5 mg/kg, S1P 0.026 mg/kg.
Experimental: For experiments performed in intact animals, male C57BL/6 mice (8-10 weeks) were anesthetized with intraperitoneal ketamine and acetylpromazine mixture according to the approved protocol. Escherichia coli LPS solution (2.5 mg/kg) or sterile saline was instilled intratracheally via a 20-gauge catheter. Simultaneously, mice received either FTY720 or analogs (in doses: 0.01, 0.1, 0.5, 1, and 5 mg/kg i.p.) or PBS as vehicle. The animals were allowed to recover for 18 h. BAL and lungs were collected and stored at −70° C. for evaluation of lung injury.
Pure BAL fluids prepared for protein measurement or myeloperoxidase activity (MPO) lung homogenates were used to test albumin concentration. […] The absorbance at 450 nm was read on a kinetic microplate reader (Molecular Devices).
Myeloperoxidase (MPO) was isolated and measured from snap-frozen right lungs as follows (see also Remick et al., 1990, Am J Pathol 136: 49-60). […] The supernatant was mixed 1:30 with assay buffer (100 mM potassium phosphate, pH 6.0, 0.005% H2O2, 0.168 mg/ml o-dianisidine hydrochloride), and absorbance read at 490 nm. MPO units were calculated as the change in absorbance with respect to time. […]
Values are shown as the mean±S.E. Data were analyzed using a standard Student's t test or one-way analysis of variance, groups were compared by Newman-Keuls test, and significance in all cases was defined at p<0.05.
Experiment [7] has as its system HPAEC. Particulars: Camp et al., 2009; cited from earlier work.
The test system of experiment [8] is HPAEC. The experiment is described as follows: Intracellular calcium by Fura-2. It counts as cell-based, human. As to conditions: 1 μM. How it is done:
To further explore the mechanistic differences in barrier regulation, intracellular calcium responses to the FTY720 analogs, S1P, and FTY720 were examined using Fura-2 (Harbeck et al., 2006, Sci STKE 2006: p16). HPAEC plated on 25-mm glass coverslips were loaded with 1 μM Fura-2/acetoxymethyl ester (Invitrogen, Carlsbad, Calif.) for 20 min at 37° C. in KRBH5 buffer (Krebs-Ringer-bicarbonate solution containing 119 mM NaCl, 4.7 mM KCl, 2.5 mM CaCl2, 1 mM MgCl2, 1 mM KH2PO4, 25 mM NaHCO3, mM HEPES-NaOH (pH 7.4), and 5 mM glucose). After replacement of the Fura-2 loading buffer with fresh KRBH5, coverslips were placed into the specimen stage of an inverted fluorescence microscope (Nikon TE-2000U). A Nikon Super Fluor 10× objective was used for these studies. Filters (340- and 380-nm excitation and 530-nm emission) were used for Fura-2 dual excitation ratio imaging. […] Fura-2 ratios were converted to [Ca^2+] using the equation: [Ca^2+]=(Kd′[(R−Rmin)/(Rmax−R)]×Sf/Sb) (Grynkiewicz et al., 1985, J Biol Chem 260: 3440-3450), where Kd′ is the dissociation constant for Fura-2 in the cytosol (225 nM) and Sf and Sb are the measured emission intensities at 380 nm for Ca^2+-free and Ca^2+-bound Fura-2, respectively. Data summaries for all Ca^2+ measurements are expressed as the means±S.E.
Background: A change in cytosolic calcium serves as a functional read-out for many receptors and channels.

The next experiment deals with MLC. As to the kind of experiment: Western blotting of HPAEC lysates for phospho-MLC. It counts as cell-based, human. As to conditions: 5 min. How it is done: as §1

T1 sequence (P21453 whole entry): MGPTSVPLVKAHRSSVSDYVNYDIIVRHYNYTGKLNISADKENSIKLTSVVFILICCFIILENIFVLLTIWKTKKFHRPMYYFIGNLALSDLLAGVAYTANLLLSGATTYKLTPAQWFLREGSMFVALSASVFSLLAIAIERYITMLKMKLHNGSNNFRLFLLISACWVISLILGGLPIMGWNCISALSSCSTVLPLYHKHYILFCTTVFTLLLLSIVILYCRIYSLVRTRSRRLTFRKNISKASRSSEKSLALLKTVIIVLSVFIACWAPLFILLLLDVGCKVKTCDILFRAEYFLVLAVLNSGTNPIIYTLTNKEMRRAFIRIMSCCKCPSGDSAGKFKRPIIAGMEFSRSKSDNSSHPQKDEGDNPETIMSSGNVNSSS
Experimental for β-arrestin: After another 2 h-incubation with fluorescence substrate, the fluorescence intensity (blue and green channels) were detected and the blue/green emission ratio was used as the activation indicator.

Take `CCCCCCCCCCCCC/C=C/[C@@H](O)[C@@H](N)COP(=O)(O)O` [S1P, sphingosine 1 phosphate]: the “% Inhibition of Maximal TER Response (of Agonist-Only Control), PTX” value in the experiment with HPAEC [1] (2-h preincubation 100 ng/ml PTX) is recorded as 98.35 (±0.25) %. For the same compound, in the experiment with HPAEC [1] (2-h preincubation 2 mM MβCD), the “% Inhibition of Maximal TER Response (of Agonist-Only Control), MβCD” value is 81.5 (±8.0) %. Also, in the experiment on HPAEC [1] (30-min preincubation 200 μM genistein), the “% Inhibition of Maximal TER Response (of Agonist-Only Control), Gen” value is on record as 42.4 (±13.9) %. The “S1PR1 expression level compared to control” value at S1P receptor 1 (S1PR1) [2] was found to be 38.1%. In the experiment on ERK, the ERK phosphorylation entry is “increased MLC and ERK phosphorylation”. Besides, the “EC permeability to FITC-dextran vs control EC” value in the experiment with HPAEC [3] is listed as “significantly decreased permeability”. Further, the “maximal TER change” value in the experiment on HPAEC [4] was “somewhat barrier-disruptive”. The “ubiquitination of S1PR1 at 1 h” value at S1P receptor 1 (S1PR1) [5] is “significant ubiquitination”. For the same compound, the “activation of β-arrestin (blue/green emission ratio)” value with β-arrestin is “strongly activated”. In addition, the “capillary leak as total BAL protein, relative to PBS control” value in experiment [6] was “reduction in permeability by 1S was comparable to that achieved by S1P or FTY720”. In addition, the “doses that can disrupt EC monolayer integrity” value with HPAEC [7] is over 10 µM. For the same compound, the “intracellular calcium [Ca2+]i” value with HPAEC [8] is “produced a transient Ca^2+ spike”. Also, the MLC phosphorylation result in the experiment on MLC is “increased MLC and ERK phosphorylation”.
